ChEMBL document CHEMBL1268819, “Design, synthesis, and biological evaluation of 4-(5-nitrofuran-2-yl)prop-2-en-1-one derivatives as potent antitubercular agents” (Bioorg Med Chem Lett, 2010)
In brackets after ≈: the same amount, converted by molar mass.

Tested on: Mycobacterium tuberculosis
Assay: Antitubercular activity against Mycobacterium tuberculosis H37Rv by resazurin microtiter assay
Format: functional
Settings: not given

Q: Which MIC does the source give for `O=C(/C=C/c1ccc([N+](=O)[O-])o1)c1ccc(Br)cc1` here?
A: 3.88 µM (≈ 1.25 µg/mL)

Q: Which MIC does the source give for `O=C(/C=C/c1ccc([N+](=O)[O-])o1)c1ccc(Cl)cc1` here?
A: 4.5 µM (≈ 1.25 µg/mL)

Q: Which MIC does the source give for `O=C(/C=C/c1ccc([N+](=O)[O-])o1)c1ccccc1` here?
A: 5.51 µM (≈ 1.34 µg/mL)

Q: For `O=C(/C=C/c1ccc([N+](=O)[O-])o1)c1ccc(F)cc1`, which MIC is on record?
A: 4.17 µM (≈ 1.09 µg/mL)

Q: With `O=C(/C=C/c1ccco1)c1ccc(F)cc1` as the molecule, how does the MIC read?
A: > 93.9 µM

Q: For `Cc1ccc(C(=O)/C=C/c2ccc([N+](=O)[O-])o2)cc1`, which MIC is on record?
A: 4.35 µM (≈ 1.12 µg/mL)

Q: Which MIC does the source give for `COc1ccc(C(=O)/C=C/c2ccc([N+](=O)[O-])o2)cc1` here?
A: 3.84 µM (≈ 1.05 µg/mL)

Q: Which MIC does the source give for `O=C(/C=C/c1ccc([N+](=O)[O-])o1)c1ccc(Cl)cc1Cl` here?
A: 14.1 µM (≈ 4.41 µg/mL)

Q: With `O=C(/C=C/c1ccc([N+](=O)[O-])o1)c1cccs1` as the molecule, how does the MIC read?
A: 5.86 µM (≈ 1.46 µg/mL)

Q: For `O=C(/C=C/c1ccc([N+](=O)[O-])o1)c1ccco1`, which MIC is on record?
A: 8.28 µM (≈ 1.93 µg/mL)

Q: For `O=C(/C=C/c1ccc([N+](=O)[O-])s1)c1ccc(N2CCCCC2)cc1`, which MIC is on record?
A: 15.6 µM (≈ 5.35 µg/mL)

Q: Which MIC does the source give for `COc1cc(C(=O)/C=C/c2ccc([N+](=O)[O-])o2)cc(OC)c1OC` here?
A: 6.06 µM (≈ 2.02 µg/mL)

Q: Which MIC does the source give for `O=C(/C=C/c1ccc([N+](=O)[O-])o1)c1cc2ccccc2oc1=O` here?
A: 29.9 µM (≈ 9.32 µg/mL)

Q: Which MIC does the source give for `O=C(/C=C/c1ccc([N+](=O)[O-])o1)c1ccc(OCc2ccccc2)cc1` here?
A: 3.29 µM (≈ 1.15 µg/mL)

Q: For `O=C(/C=C/c1ccc([N+](=O)[O-])o1)c1ccc(OCc2ccc(F)cc2)cc1`, which MIC is on record?
A: 19.8 µM (≈ 7.27 µg/mL)

Q: With `COc1ccc(COc2ccc(C(=O)/C=C/c3ccc([N+](=O)[O-])o3)cc2)cc1` as the molecule, how does the MIC read?
A: 1.85 µM (≈ 0.702 µg/mL)

Q: With `O=C(/C=C/c1ccc([N+](=O)[O-])o1)c1ccc(OCc2ccc(Cl)cc2Cl)cc1` as the molecule, how does the MIC read?
A: > 46.6 µM

Q: With `O=C(/C=C/c1ccc([N+](=O)[O-])o1)c1ccc(OCc2cccc(Cl)c2)cc1` as the molecule, how does the MIC read?
A: 6.1 µM (≈ 2.34 µg/mL)

Q: Which MIC does the source give for `O=C(/C=C/c1ccc([N+](=O)[O-])o1)c1ccc(OCc2ccc(OC(F)(F)F)cc2)cc1` here?
A: 1.66 µM (≈ 0.719 µg/mL)

Q: Which MIC does the source give for `C=C(C)COc1ccc(C(=O)/C=C/c2ccc([N+](=O)[O-])o2)cc1` here?
A: 5.59 µM (≈ 1.75 µg/mL)

Q: With `O=C(/C=C/c1ccc([N+](=O)[O-])o1)c1ccc(N2CCN(Cc3ccccc3)CC2)cc1` as the molecule, how does the MIC read?
A: > 31.7 µM

Q: Which MIC does the source give for `O=C(/C=C/c1ccc([N+](=O)[O-])o1)c1ccc(N2CCN(C/C=C/c3ccccc3)CC2)cc1` here?
A: > 32.7 µM

Q: With `CCN(CC)c1ccc(C(=O)/C=C/c2ccc([N+](=O)[O-])o2)cc1` as the molecule, how does the MIC read?
A: 0.48 µM (≈ 0.151 µg/mL)

Q: With `O=C(/C=C/c1ccc([N+](=O)[O-])o1)c1ccc(N2CCCCC2)cc1` as the molecule, how does the MIC read?
A: 0.19 µM (≈ 0.062 µg/mL)

Q: With `O=C(/C=C/c1ccc([N+](=O)[O-])o1)c1ccc(N2CCOCC2)cc1` as the molecule, how does the MIC read?
A: 0.38 µM (≈ 0.125 µg/mL)

Q: With `NNC(=O)c1ccncc1` [ISONIAZID] as the molecule, how does the MIC read?
A: 1.8 µM (≈ 0.247 µg/mL)

Tested on: not listed separately
Assay: Toxicity in African green monkey Vero cells
Format: cell-based
Settings: chlorocebus sabaeus

Q: Which CC50 does the source give for `O=C(/C=C/c1ccc([N+](=O)[O-])o1)c1ccc(Br)cc1` here?
A: 354 µM

Q: Which CC50 does the source give for `O=C(/C=C/c1ccc([N+](=O)[O-])o1)c1ccc(Cl)cc1` here?
A: 558 µM

Q: For `O=C(/C=C/c1ccc([N+](=O)[O-])o1)c1ccccc1`, which CC50 is on record?
A: 444 µM

Q: With `O=C(/C=C/c1ccc([N+](=O)[O-])o1)c1ccc(F)cc1` as the molecule, how does the CC50 read?
A: 463 µM

Q: With `O=C(/C=C/c1ccco1)c1ccc(F)cc1` as the molecule, how does the CC50 read?
A: 661 µM

Q: Which CC50 does the source give for `Cc1ccc(C(=O)/C=C/c2ccc([N+](=O)[O-])o2)cc1` here?
A: 439 µM

Q: With `COc1ccc(C(=O)/C=C/c2ccc([N+](=O)[O-])o2)cc1` as the molecule, how does the CC50 read?
A: 571 µM

Q: For `O=C(/C=C/c1ccc([N+](=O)[O-])o1)c1ccc(Cl)cc1Cl`, which CC50 is on record?
A: 417 µM

Q: With `O=C(/C=C/c1ccc([N+](=O)[O-])o1)c1cccs1` as the molecule, how does the CC50 read?
A: 742 µM

Q: With `O=C(/C=C/c1ccc([N+](=O)[O-])o1)c1ccco1` as the molecule, how does the CC50 read?
A: 776 µM

Q: With `O=C(/C=C/c1ccc([N+](=O)[O-])s1)c1ccc(N2CCCCC2)cc1` as the molecule, how does the CC50 read?
A: 404 µM

Q: For `COc1cc(C(=O)/C=C/c2ccc([N+](=O)[O-])o2)cc(OC)c1OC`, which CC50 is on record?
A: 384 µM

Q: Which CC50 does the source give for `O=C(/C=C/c1ccc([N+](=O)[O-])o1)c1cc2ccccc2oc1=O` here?
A: 360 µM

Q: With `O=C(/C=C/c1ccc([N+](=O)[O-])o1)c1ccc(OCc2ccccc2)cc1` as the molecule, how does the CC50 read?
A: 515 µM

Q: With `O=C(/C=C/c1ccc([N+](=O)[O-])o1)c1ccc(OCc2ccc(F)cc2)cc1` as the molecule, how does the CC50 read?
A: 430 µM

Q: For `COc1ccc(COc2ccc(C(=O)/C=C/c3ccc([N+](=O)[O-])o3)cc2)cc1`, which CC50 is on record?
A: 311 µM

Q: With `O=C(/C=C/c1ccc([N+](=O)[O-])o1)c1ccc(OCc2ccc(Cl)cc2Cl)cc1` as the molecule, how does the CC50 read?
A: 340 µM

Q: For `O=C(/C=C/c1ccc([N+](=O)[O-])o1)c1ccc(OCc2cccc(Cl)c2)cc1`, which CC50 is on record?
A: 307 µM

Q: With `O=C(/C=C/c1ccc([N+](=O)[O-])o1)c1ccc(OCc2ccc(OC(F)(F)F)cc2)cc1` as the molecule, how does the CC50 read?
A: 335 µM

Q: With `C=C(C)COc1ccc(C(=O)/C=C/c2ccc([N+](=O)[O-])o2)cc1` as the molecule, how does the CC50 read?
A: 393 µM

Q: With `O=C(/C=C/c1ccc([N+](=O)[O-])o1)c1ccc(N2CCN(Cc3ccccc3)CC2)cc1` as the molecule, how does the CC50 read?
A: 299 µM

Q: With `O=C(/C=C/c1ccc([N+](=O)[O-])o1)c1ccc(N2CCN(C/C=C/c3ccccc3)CC2)cc1` as the molecule, how does the CC50 read?
A: 343 µM

Q: Which CC50 does the source give for `CCN(CC)c1ccc(C(=O)/C=C/c2ccc([N+](=O)[O-])o2)cc1` here?
A: 334 µM

Q: For `O=C(/C=C/c1ccc([N+](=O)[O-])o1)c1ccc(N2CCCCC2)cc1`, which CC50 is on record?
A: 349 µM

Q: For `O=C(/C=C/c1ccc([N+](=O)[O-])o1)c1ccc(N2CCOCC2)cc1`, which CC50 is on record?
A: 387 µM

Q: Which CC50 does the source give for `NNC(=O)c1ccncc1` [ISONIAZID] here?
A: > 500 µM

Tested on: not listed separately
Assay: Selectivity index, ratio of CC50 for African green monkey Vero cells to MIC for Mycobacterium tuberculosis H37Rv
Format: functional
Settings: not given

Q: For `O=C(/C=C/c1ccc([N+](=O)[O-])o1)c1ccc(N2CCCCC2)cc1`, which “Selectivity Index” value is on record?
A: >1800
